These are literature values, as cited in patent publication US10918652B2, “Compositions for the treatment of dermatological diseases and disorders” (CLARIDEI LABORATORIES, INC., priority 2014, dated 2021).

The conditions of this data set: cited from Ramachandran et al. 2006.

In general, pKa refers to the pH at which an ionisable group is half protonated. With `O=C(O)[C@H](O)[C@@H](O)[C@H](O)[C@H](O)CO` [Gluconic acid], the pKa is 3.7.
